{
  "source": "patent US10364216B2",
  "about": "“Alkenyl sulfate ester or salt thereof” (Kao Corporation, priority 2013, dated 2019)",
  "key": {"[1]": {"assay": "Evaluation of sweetness (3)/(4): sweetness intensity over time against sucrose standard solutions", "assay_type": "in vivo, human", "protocol": "(§1) To seven examiners, 4 kinds of 10 mL aqueous sucrose standard solutions (2.5, 5.0, 7.5 and 10.0 wt %) were presented. The examiners kept each of the solutions in their mouth for 5 seconds or so, and then spat the solution out, and were asked to consider the sweetness intensity at that time (0 to 15) to be 2.5, 5, 7.5 and 10, respectively. Next, the examiners kept 10 mL solution of 10 mM trans-3-octenyl sulfate in their mouth for 5 seconds or so, and then spat the solution out, and compared the sweetness intensity at that time with that of the aqueous sucrose standard solution, and evaluated the sweetness intensity with a number in a range of 0 to 15. Then, the examiners kept 10 mL pure water for 5 minutes at an interval of 30 seconds, and then spat the solution out, and evaluated the sweetness intensity at that time in the same manner.\nas §1, with “four” for “4”, “cis-3-octenyl” for “trans-3-octenyl”, “water in their mouth” for “water”"}, "[2]": {"assay": "Action of reinforcing sweetness (previous intake of trans-3-octenyl sulfate)", "assay_type": "in vivo, human", "details": "5 mM, 60 seconds before sucralose or glycyrrhizin 0.25 mM", "protocol": "To six examiners, 4 kinds of 10 mL aqueous solutions of sucrose standard (2.5, 5.0, 7.5 and 10.0 wt %) were presented. The examiners kept each of the solutions in their mouth for 5 seconds or so, and then spat the solution out, and were asked to consider the sweetness intensity at that time (0 to 15) to be 2.5, 5, 7.5 and 10, respectively. Next, the examiners kept 10 mL aqueous solution of sucralose (0.25 mM) in their mouth for 5 seconds or so without knowing the kind and the concentration of the sweetener, and then spat the solution out, and compared the sweetness intensity at that time with that of the aqueous sucrose standard solution, and evaluated the sweetness intensity with a number in a range of 0 to 15. Subsequently, the examiners kept 10 mL solution of 5 mM trans-3-octenyl sulfate in advance in their mouth for 5 seconds or so in advance, and then spat the solution out, and after passage of 60 seconds, the examiners kept 10 mL aqueous solution of sucralose (0.25 mM) in their mouth for 5 seconds or so, and then spat the solution out, and compared the sweetness intensity at that time with that of the aqueous sucrose standard solution, and evaluated the sweetness intensity with a number in a range of 0 to 15.\nTo six examiners, 4 kinds of 10 mL aqueous sucrose standard solutions (2.5, 5.0, 7.5 and 10.0 wt %) were presented. The examiners kept each of the solutions in their mouth for 5 seconds or so, and then spat the solution out, and were asked to consider the sweetness intensity at that time (0 to 15) to be 2.5, 5, 7.5 and 10, respectively. Next, the examiners kept 10 mL aqueous solution of glycyrrhizin (0.25 mM) in their mouth for 5 seconds or so without knowing the kind and the concentration of the sweetener, and then spat the solution out, and compared the sweetness intensity at that time with that of the aqueous sucrose standard solution, and evaluated the sweetness intensity with a number in a range of 0 to 15. Subsequently, the examiners kept 10 mL solution of 5 mM trans-3-octenyl sulfate in their mouth for 5 seconds or so in advance, and then spat the solution out, and after passage of 60 seconds, the examiners kept 10 mL aqueous solution of glycyrrhizin (0.25 mM) in their mouth for 5 seconds or so, and then spat the solution out, and compared the sweetness intensity at that time with that of the aqueous sucrose standard solution, and evaluated the sweetness intensity with a number in a range of 0 to 15."}},
  "note": "Counter-ions that a name gives are not always drawn.",
  "data": [
    {"compound": "CCCC/C=C/CCOS(=O)(=O)O", "note": "[trans-3-octenyl sulfate]", "values": [
      {"measurement": "Examiners who recognized the sweetness by virtue of intake of water", "setting": "[1]; 10 mL of 10 mM solution, then pure water every 30 seconds", "result": "Seven out of the seven"},
      {"measurement": "Duration of sweetness", "setting": "[1]; 10 mL of 10 mM solution, then pure water every 30 seconds for 5 minutes", "result": "the sweetness lasted for a certain time"},
      {"measurement": "Sweetness intensity (mean)", "setting": "[1]; Time 0 minute, 10 mL of 10 mM solution kept 5 seconds, scale 0 to 15 vs sucrose standards, seven examiners", "result": 0.0},
      {"measurement": "Sweetness intensity (mean)", "setting": "[1]; Time 0.5 minute, on keeping 10 mL pure water, after 10 mM solution, scale 0 to 15", "result": 1.7},
      {"measurement": "Sweetness intensity (mean)", "setting": "[1]; Time 1 minute, on keeping 10 mL pure water, after 10 mM solution, scale 0 to 15", "result": 3.6},
      {"measurement": "Sweetness intensity (mean)", "setting": "[1]; Time 1.5 minute, on keeping 10 mL pure water, after 10 mM solution, scale 0 to 15", "result": 3.9},
      {"measurement": "Sweetness intensity (mean)", "setting": "[1]; Time 2 minute, on keeping 10 mL pure water, after 10 mM solution, scale 0 to 15", "result": 3.6},
      {"measurement": "Sweetness intensity (mean)", "setting": "[1]; Time 2.5 minute, on keeping 10 mL pure water, after 10 mM solution, scale 0 to 15", "result": 3.0},
      {"measurement": "Sweetness intensity (mean)", "setting": "[1]; Time 3 minute, on keeping 10 mL pure water, after 10 mM solution, scale 0 to 15", "result": 2.1},
      {"measurement": "Sweetness intensity (mean)", "setting": "[1]; Time 3.5 minute, on keeping 10 mL pure water, after 10 mM solution, scale 0 to 15", "result": 1.1},
      {"measurement": "Sweetness intensity (mean)", "setting": "[1]; Time 4 minute, on keeping 10 mL pure water, after 10 mM solution, scale 0 to 15", "result": 0.8},
      {"measurement": "Sweetness intensity (mean)", "setting": "[1]; Time 4.5 minute, on keeping 10 mL pure water, after 10 mM solution, scale 0 to 15", "result": 0.5},
      {"measurement": "Sweetness intensity (mean)", "setting": "[1]; Time 5 minute, on keeping 10 mL pure water, after 10 mM solution, scale 0 to 15", "result": 0.6},
      {"measurement": "Effect of previous intake on the sweetness of the sweetener", "setting": "[2]", "result": "effect of reinforcing the sweetness of the sweetener"}
    ]}
  ]
}
